Where a name gives a salt, the structure may show the parent alone. Read-outs that look alike come from different tables or passages of the source.

Assay [1] deals with T1, baculovirus-expressed ALK (Homo sapiens, UniProt Q9UM73).
T1 construct: host or cells: baculovirus expression system
In words: ALK Kinase Assay (ELISA-type, time-resolved fluorescence). It counts as biochemical. The settings on record: 1 μM ATP (Km level). The method, boiled down: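 Wells were coated with phospholipase C-γ at 10 μg/mL in Tris-buffered saline. Adding 30 ng/ml enzyme started the reaction, which ran at 37° C for 15 minutes before Eu-N1 PT66 antibody detection. Percent inhibition versus log10 concentration gave IC50 by variable-slope fit.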

For assay [2], the target named is T2, c-Met (cytoplasmic domain) (Homo sapiens, UniProt P08581).
T2 construct: 10 ng/mL c-Met (cytoplasmic domain, Invitrogen Corporation #PV3143); purchased Invitrogen Corporation PV3143
T2 sequence (P08581 956-1390 limits assumed): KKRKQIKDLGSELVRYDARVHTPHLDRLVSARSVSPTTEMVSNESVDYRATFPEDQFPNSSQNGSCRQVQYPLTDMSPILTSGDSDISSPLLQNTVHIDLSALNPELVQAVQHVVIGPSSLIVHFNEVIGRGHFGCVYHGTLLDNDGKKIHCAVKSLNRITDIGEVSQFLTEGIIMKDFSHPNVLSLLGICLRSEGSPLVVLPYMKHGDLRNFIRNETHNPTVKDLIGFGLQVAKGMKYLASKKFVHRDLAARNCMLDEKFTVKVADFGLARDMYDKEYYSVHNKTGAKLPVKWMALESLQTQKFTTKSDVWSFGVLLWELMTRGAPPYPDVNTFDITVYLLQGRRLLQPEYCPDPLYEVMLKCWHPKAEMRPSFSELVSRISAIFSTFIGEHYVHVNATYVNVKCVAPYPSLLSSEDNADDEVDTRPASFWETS
In words: c-Met Kinase Assay (same methods as for ALK, with modifications). The class given is biochemical. The settings on record: 1 μM ATP (Km level). Summed up: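 IC50 values were fitted by variable-slope sigmoidal regression of percent inhibition against log compound concentration. Phosphorylation was read with Eu-N1 PT66 antibody after a 15 min, 37 °C reaction. The reaction was initiated with 10 ng/mL c-Met cytoplasmic domain on wells coated with 10 μg/mL PLC-γ in TBS.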

The mark [3] stands for this setting: ALK kinase inhibition, read-out: ALK Activity.
The mark [4] stands for this setting: c-Met kinase inhibition, read-out: cMet Activity.
Where [5] appears, read: read-out: ALK Activity (ALK Kinase Inhibition, IC50).
[6] abbreviates: read-out: cMet Activity (c-Met Kinase Inhibition, IC50).

T1 sequence (Q9UM73 19-1620): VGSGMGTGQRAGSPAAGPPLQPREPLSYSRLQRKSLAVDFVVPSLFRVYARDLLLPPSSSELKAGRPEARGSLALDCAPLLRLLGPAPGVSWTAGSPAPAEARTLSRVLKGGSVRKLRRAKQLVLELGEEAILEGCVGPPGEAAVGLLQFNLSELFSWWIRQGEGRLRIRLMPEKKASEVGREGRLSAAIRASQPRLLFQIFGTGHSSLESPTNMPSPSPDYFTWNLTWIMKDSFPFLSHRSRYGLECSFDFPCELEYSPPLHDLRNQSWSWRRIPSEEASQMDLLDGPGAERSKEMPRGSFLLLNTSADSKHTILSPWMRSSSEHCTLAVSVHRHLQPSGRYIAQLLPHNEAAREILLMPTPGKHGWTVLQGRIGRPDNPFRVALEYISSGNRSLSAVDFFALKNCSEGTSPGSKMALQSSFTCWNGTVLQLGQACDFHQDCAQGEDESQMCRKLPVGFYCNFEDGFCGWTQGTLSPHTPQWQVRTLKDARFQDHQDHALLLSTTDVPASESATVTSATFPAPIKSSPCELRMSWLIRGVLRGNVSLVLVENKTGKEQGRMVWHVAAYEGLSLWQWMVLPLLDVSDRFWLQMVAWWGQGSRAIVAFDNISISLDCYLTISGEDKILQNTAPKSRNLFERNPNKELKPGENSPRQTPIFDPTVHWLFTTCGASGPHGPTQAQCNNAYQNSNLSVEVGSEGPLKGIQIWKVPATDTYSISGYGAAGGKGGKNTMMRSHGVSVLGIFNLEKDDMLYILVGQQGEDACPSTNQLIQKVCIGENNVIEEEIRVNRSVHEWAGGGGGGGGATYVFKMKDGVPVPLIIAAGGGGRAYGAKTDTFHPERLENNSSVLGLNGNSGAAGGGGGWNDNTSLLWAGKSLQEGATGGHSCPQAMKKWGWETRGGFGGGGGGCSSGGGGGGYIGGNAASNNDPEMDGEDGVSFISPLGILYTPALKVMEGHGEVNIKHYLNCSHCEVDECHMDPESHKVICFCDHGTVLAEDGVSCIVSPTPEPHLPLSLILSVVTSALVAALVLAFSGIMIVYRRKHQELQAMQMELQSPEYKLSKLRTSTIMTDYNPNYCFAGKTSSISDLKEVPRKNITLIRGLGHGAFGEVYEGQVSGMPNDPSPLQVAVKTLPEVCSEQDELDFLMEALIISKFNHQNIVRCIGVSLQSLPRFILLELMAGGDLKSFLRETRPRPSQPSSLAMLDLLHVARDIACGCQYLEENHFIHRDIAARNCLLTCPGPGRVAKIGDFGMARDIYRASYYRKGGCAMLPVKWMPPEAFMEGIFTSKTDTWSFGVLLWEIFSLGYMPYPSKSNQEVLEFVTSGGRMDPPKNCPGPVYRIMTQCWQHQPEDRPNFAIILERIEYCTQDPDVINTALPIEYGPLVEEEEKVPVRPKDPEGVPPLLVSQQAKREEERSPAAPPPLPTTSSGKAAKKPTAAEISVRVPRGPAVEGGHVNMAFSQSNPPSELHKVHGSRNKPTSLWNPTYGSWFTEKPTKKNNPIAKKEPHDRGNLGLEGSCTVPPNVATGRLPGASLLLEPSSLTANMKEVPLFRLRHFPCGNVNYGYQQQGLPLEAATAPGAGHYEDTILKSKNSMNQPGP

On to `NC(=O)[C@@H]1[C@H](Nc2nc(Nc3ccc4c(c3)CCC(=O)CC4)ncc2Cl)[C@H]2C=C[C@@H]1C2` (relative stereo) [Example 173, (2-exo,3-exo)-3-[5-Chloro-2-(7-oxo-6,7,8,9-tetrahydro-5H-benzocyclo-hepten-2-ylamino)-pyrimidin-4-ylamino]-bicyclo[2.2.1]hept-5-ene-2-carboxylic acid amide; hydrochloride], for which the IC50 in assay [1] (setting [3]) is less than 100 nM; in assay [2] (setting [4]), 100 to 1000 nM.

On to `CCN1CCc2ccc(Nc3ncc(Cl)c(N[C@H]4CCC[C@H]4C(N)=O)n3)cc2CC1` (relative stereo) [Example 176, Cis-2-[5-Chloro-2-(3-ethyl-2,3,4,5-tetrahydro-1H-benzo[d]-azepin-7-ylamino)-pyrimidin-4-ylamino]-cyclopentanecarboxylic acid amide], for which the results for the IC50 in assay [1] (setting [3]) and in assay [2] (setting [4]) were 100 to 1000 nM and 1000 to 10000 nM, respectively.

As to `CCN1CCc2ccc(Nc3ncc(Cl)c(N[C@H]4CCCC[C@H]4C(=O)NC)n3)cc2CC1` (relative stereo) [Example 200, cis-2-[5-Chloro-2-(3-ethyl-2,3,4,5-tetrahydro-1H-benzo[d]azepin-7-ylamino)-pyrimidin-4-ylamino]-cyclohexanecarboxylic acid methylamide], the IC50 in assay [1] (setting [3]) is less than 100 nM; in assay [2] (setting [4]), 100 to 1000 nM.

Take `COCCN1CCc2ccc(OC)c(Nc3ncc(Cl)c(N[C@H]4[C@@H](C(N)=O)[C@@H]5C=C[C@H]4C5)n3)c2CC1` (relative stereo) [Example 245, (2-exo,3-exo)-3-{5-Chloro-2-[7-methoxy-3-(2-methoxy-ethyl)-2,3,4,5-tetrahydro-1H-benzo[d]azepin-6-ylamino]-pyrimidin-4-ylamino}-bicyclo[2.2.1]hept-5-ene-2-carboxylic acid amide]: the IC50 in assay [1] (setting [3]) was 1000 to 10000 nM; in assay [2] (setting [4]), greater than 10000 nM.

Consider `COc1cc2c(cc1Nc1ncc(Cl)c(N[C@@H]3[C@H](C(N)=O)[C@H]4C=C[C@@H]3C4)n1)CCN(CC(F)(F)F)CC2` (relative stereo) [Example 250, (2-exo, 3-exo)-3-{5-Chloro-2-[8-methoxy-3-(2,2,2-trifluoro-ethyl)-2,3,4,5-tetrahydro-1H-benzo[d]azepin-7-ylamino]-pyrimidin-4-ylamino}-bicyclo[2.2.1]hept-5-ene-2-carboxylic acid amide hydrochloride], for which the IC50 in assay [1] (setting [3]) is less than 100 nM; in assay [2] (setting [4]), greater than 10000 nM.

`COCCN1CCc2ccc(Nc3ncc(Cl)c(N[C@@H]4CCCC[C@H]4O)n3)cc2CC1` (relative stereo) [Example 318, trans-2-{5-Chloro-2-[3-(2-methoxy-ethyl)-2,3,4,5-tetrahydro-1H-benzo[d]azepin-7-ylamino]-pyrimidin-4-ylamino}-cyclohexanol]: the IC50 in assay [1] (setting [3]) is 1000 to 10000 nM; in assay [2] (setting [4]), greater than 10000 nM.

For `CCN1CCc2ccc(Nc3ncc(Cl)c(N[C@@H]4CCCC[C@H]4O)n3)cc2CC1` (relative stereo) [Example 319, trans-2-[5-Chloro-2-(3-ethyl-2,3,4,5-tetrahydro-1H-benzo[d]azepin-7-ylamino)-pyrimidin-4-ylamino]-cyclohexanol], the results for the IC50 in assay [1] (setting [3]) and in assay [2] (setting [4]) were 100 to 1000 nM and greater than 10000 nM, respectively.

Turning to `C#CCN1CCc2ccc(Nc3ncc(Cl)c(N[C@H]4[C@@H](C(N)=O)[C@@H]5C=C[C@H]4C5)n3)cc2CC1` (relative stereo) [Example 323, (2-exo, 3-exo)-3-[5-Chloro-2-(3-prop-2-ynyl-2,3,4,5-tetrahydro-1H-benzo[d]azepin-7-ylamino)-pyrimidin-4-ylamino]-bicyclo[2.2.1]hept-5-ene-2-carboxylic acid amide], the IC50 is less than 100 nM in assay [1] (setting [3]) and 100 to 1000 nM in assay [2] (setting [4]).

Regarding `COCCN1CCc2ccc(Nc3ncc(Cl)c(N[C@@H]4CCC[C@H]4NS(C)(=O)=O)n3)cc2CC1` (relative stereo) [Example 371, N-(trans-2-{5-Chloro-2-[3-(2-methoxy-ethyl)-2,3,4,5-tetrahydro-1H-benzo[d]azepin-7-ylamino]-pyrimidin-4-ylamino}-cyclopentyl)-methanesulfonamide], the IC50 in assay [1] (setting [3]) lay within 100 to 1000 nM; in assay [2] (setting [4]) it was 1000 to 10000 nM.

On to `CNC(=O)[C@@H]1CCC[C@@H]1Nc1nc(Nc2ccc3c(c2)CCN(CCOC)CC3)ncc1Cl` (relative stereo) [Example 372, cis-2-{5-Chloro-2-[3-(2-methoxy-ethyl)-2,3,4,5-tetrahydro-1H-benzo[d]azepin-7-ylamino]-pyrimidin-4-ylamino}-cyclopentanecarboxylic acid methylamide], for which the IC50 in assay [1] (setting [3]) is less than 100 nM; in assay [2] (setting [4]), 100 to 1000 nM.

`CCN1C(=O)CCCc2c1ccc(Nc1ncc(Cl)c(N[C@H]3CCC[C@H]3C(=O)NC)n1)c2OC` (relative stereo) [Example 373, cis-2-[5-Chloro-2-(1-ethyl-6-methoxy-2-oxo-2,3,4,5-tetrahydro-1H-benzo[b]azepin-7-ylamino)-pyrimidin-4-ylamino]-cyclopentanecarboxylic acid methylamide]: the IC50 in assay [1] (setting [3]) is less than 100 nM; in assay [2] (setting [4]), greater than 10000 nM.

Turning to `CCN1C(=O)CCCc2c1ccc(Nc1ncc(Cl)c(N[C@@H]3CCC[C@H]3NS(C)(=O)=O)n1)c2OC` (relative stereo) [Example 374, N-{trans-2-[5-Chloro-2-(1-ethyl-6-methoxy-2-oxo-2,3,4,5-tetrahydro-1H-benzo[b]azepin-7-ylamino)-pyrimidin-4-ylamino]-cyclopentyl}-methanesulfonamide], the IC50 was 100 to 1000 nM in assay [1] (setting [3]) and greater than 10000 nM in assay [2] (setting [4]).

For `CNC(=O)[C@@H]1CCC[C@@H]1Nc1nc(Nc2cc3c(cc2OC)CCN(CC(=O)N(C)C)CC3)ncc1Cl` (relative stereo) [Example 375, cis-2-[5-Chloro-2-(3-dimethylcarbamoylmethyl-8-methoxy-2,3,4,5-tetrahydro-1H-benzo[d]azepin-7-ylamino)-pyrimidin-4-ylamino]-cyclopentanecarboxylic acid methylamide], the IC50 in assay [1] (setting [3]) is less than 100 nM; in assay [2] (setting [4]) it was greater than 10000 nM.

For `CN1C(=O)CCC(C)(C)c2cc(Nc3ncc(Cl)c(N[C@H]4[C@@H](C(N)=O)[C@@H]5C=C[C@H]4C5)n3)ccc21` (relative stereo) [Example 386, (2-exo, 3-exo)-3-[5-Chloro-2-(1,5,5-trimethyl-2-oxo-2,3,4,5-tetrahydro-1H-benzo[b]azepin-7-ylamino)-pyrimidin-4-ylamino]-bicyclo[2.2.1]hept-5-ene-2-carboxylic acid amide], the IC50 in assay [1] (setting [3]) was less than 100 nM; in assay [2] (setting [4]) it was 100 to 1000 nM.

Regarding `COCCN1CCc2ccc(Nc3ncc(Cl)c(N[C@@H]4[C@H](C(N)=O)[C@@H]5C=C[C@H]4C5)n3)cc2CC1` (relative stereo) [Example 459, (2-endo, 3-endo)-3-{5-Chloro-2-[3-(2-methoxy-ethyl)-2,3,4,5-tetrahydro-1H-benzo[d]azepin-7-ylamino]-pyrimidin-4-ylamino}-bicyclo[2.2.1]hept-5-ene-2-carboxylic acid amide], the IC50 was less than 100 nM in assay [1] (setting [3]) and 1000 to 10000 nM in assay [2] (setting [4]).

Consider `CCN1C(=O)CCCc2c1ccc(Nc1ncc(Cl)c(N[C@H]3[C@@H](C(=O)NC)[C@@H]4C=C[C@H]3C4)n1)c2OC` (relative stereo) [Example 601, (2-exo-3-exo)-3-[5-Chloro-2-(1-ethyl-6-methoxy-2-oxo-2,3,4,5-tetrahydro-1H-benzo[b]azepin-7-ylamino)-pyrimidin-4-ylamino]-bicyclo[2.2.1]hept-5-ene-2-carboxylic acid methylamide], for which the IC50 in assay [1] (setting [5]) is less than 100 nM; in assay [2] (setting [6]), greater than 10000 nM.

In the case of `CNC(=O)[C@H]1[C@@H](Nc2nc(Nc3ccc4c(c3)CCN(CCOC)CC4)ncc2Cl)[C@@H]2C=C[C@H]1C2` (relative stereo) [Example 615, (2-exo-3-exo)-3-{5-Chloro-2-[3-(2-methoxy-ethyl)-2,3,4,5-tetrahydro-1H-benzo[d]azepin-7-ylamino]-pyrimidin-4-ylamino}-bicyclo[2.2.1]hept-5-ene-2-carboxylic acid methylamide], the IC50 in assay [1] (setting [5]) is less than 100 nM; in assay [2] (setting [6]), 100 to 1000 nM.

As to `CNC(=O)[C@@H]1[C@H](Nc2nc(Nc3ccc4c(c3)C(C)(C)CCC(=O)N4)ncc2Cl)[C@H]2C=C[C@@H]1C2` (relative stereo) [Example 620, (2-exo-3-exo)-3-[5-Chloro-2-(5,5-dimethyl-2-oxo-2,3,4,5-tetrahydro-1H-benzo[b]azepin-7-ylamino)-pyrimidin-4-ylamino]-bicyclo[2.2.1]hept-5-ene-2-carboxylic acid methylamide], the results for the IC50 in assay [1] (setting [5]) and in assay [2] (setting [6]) were less than 100 nM and 100 to 1000 nM, respectively.

`COc1cc2c(cc1Nc1ncc(Cl)c(N[C@H]3[C@@H](C(N)=O)[C@@H]4C=C[C@H]3C4)n1)CCN(CC(F)F)CC2` (relative stereo) [Example 763, (2-exo,3-exo)-3-{5-Chloro-2-[3-(2,2-difluoro-ethyl)-8-methoxy-2,3,4,5-tetrahydro-1H-benzo[d]azepin-7-ylamino]-pyrimidin-4-ylamino}-bicyclo[2.2.1]hept-5-ene-2-carboxylic acid amide]: the IC50 in assay [1] (setting [5]) is less than 100 nM; in assay [2] (setting [6]) it was greater than 10000 nM.

The values above are taken from patent publication US8148391B2 (Cephalon, Inc., priority 2006, dated 2012).
